# Read-outs that look alike come from different tables or passages of the source.
# What was measured:
# [1] = system: peptide-sensitized autologous PHA blasts or LCLs; assay type: cell-based, human; design: key to CTL response: Y: Yes; ND: Not detected
# HLA A2 = biological target: T1, HLA A2 (Homo sapiens, UniProt P04439, D140Y/D185E/D98H/E176V/E277Q/G131W/G231S/I119V/I121R/I166T/I218V/L300P/L318F/N151K/N90K/P208A/P217A/Q86G/Q94H/R138H/R169H/T345S); assay type: cell-based; conditions: HLA A2 on T2 cells; relative increase in HLA expression vs no peptide at 26° C.
# T1 construct: endogenous in cells; host or cells: T2 cells
# [2] = system: PBMC from healthy HCMV seropositive donors; test: IFN-γ ELISPOT assay; assay type: cell-based, human; conditions: peptide 10 μg/ml
# Procedure, shortened: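 IFN-γ-secreting T cells were counted as spots, with no-peptide control wells subtracted and means taken from triplicate wells. These spots came from healthy seropositive carriers' PBMC, 2.5×10^5 per well.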
# [3] = overlapping 20mer peptides, Table 4
Sequence,"CTL response ([1]; predicted epitopes, Table 3)",MSE (MHC stabilization efficiency) (HLA A2),ELISPOT Responses (SFC/10^6 PBMC) ([2]; donor seven),other results
AVGGAVASV (human cytomegalovirus gB CTL epitope peptide),Y,− (− = 0-50%),SB(192) SFC/10^6 PBMC,
VLAELVKQI (human cytomegalovirus IE1 CTL epitope peptide),Y,++ (++ = 100-199%),SB(276) SFC/10^6 PBMC,
GQTEPIAFV (human cytomegalovirus pp150 CTL epitope peptide),,+ (+ = 51-99%),,"CTL activity of polyclonal CTL line ([1]; donor seven, effector:target ratio 10:1): lower CTL activity"
IIYTRNHEV (human cytomegalovirus IE2 CTL epitope peptide),Y,+ (+ = 51-99%),369 SFC/10^6 PBMC,"peptide concentration required for half maximal lysis, fold more than NLVPMVATV and VLEETSVML epitopes respectively [1]: 100-500 fold; ELISPOT Responses (SFC/10^6 PBMC) ([2]; donor delta): SE(137) SFC/10^6 PBMC; ELISPOT Responses (SFC/10^6 PBMC) ([2]; donor fifteen): 80 SFC/10^6 PBMC"
SMMWMRFFV (human cytomegalovirus US2 CTL epitope peptide),Y,++ (++ = 100-199%),,ELISPOT Responses (SFC/10^6 PBMC) ([2]; donor delta): SE(393) SFC/10^6 PBMC
ILARNLVPMVATVQGQNLKY,,,216 SFC/10^6 PBMC,"CTL response [1, 3]: Y; ELISPOT Responses (SFC/10^6 PBMC) ([2]; donor four): 500 SFC/10^6 PBMC; ELISPOT Responses (SFC/10^6 PBMC) ([2]; donor three): MW(229) SFC/10^6 PBMC"
LNIPSINVHHYPSAAERKHR,,,,"CTL response [1, 3]: Y; ELISPOT Responses (SFC/10^6 PBMC) ([2]; donor sixteen): 222 SFC/10^6 PBMC; ELISPOT Responses (SFC/10^6 PBMC) ([2]; donor twelve): 285 SFC/10^6 PBMC"

# Source: patent US7524503B2, “Human cytomegalovirus (HCMV) cytotoxic T cell epitopes, polyepitopes compositions comprising same and diagnostic and prophylactic and therapeutic uses therefor” (priority 2001, dated 2009)
